Experimental data from PMC11672637, “7-O-Carboxylic Acid-Substituted 3-O-Alkyl Difluoroquercetin; An Aztreonam-Potentiating Agent Against Carbapenemase-Producing Pseudomonas aeruginosa Through Simultaneous Inhibition of Metallo-β-Lactamase and Efflux Pump” (Antibiotics, 2024).

System: efflux pump activity in P. aeruginosa (PA-017, blaNDM)
Test: EtBr accumulation, inhibition of efflux pump activity
Assay type: cell-based
Settings: EtBr fluorescence compared with positive control CCCP
Experimental: The NDM-producing P. aeruginosa clinical isolate (PA-017, blaNDM) (5 mL, LB medium) was grown to reach the mid-log phase. After centrifugation at 3500 rpm for 15 min, the bacterial pellet was washed twice with PBS and resuspended to OD600 = 0.3 in PBS. To each well of a flat-bottomed black 96-well plate, 182 µL of the bacterial suspension, 4 µL of glucose [final concentration = 0.4% (w/v)], 4 µL of the synthesized compounds or positive control CCCP, and 10 µL of EtBr (final concentration = 1 µg/mL) were added. The plate was incubated at 37 °C, and fluorescence emission from EtBr (λex 480 nm/λem 630 nm) was recorded every 2 min (for 60 min) using a Cytation 5 imaging multi-mode reader (BioTek Instruments, Inc., Winooski, VT, USA).

CC(C)(C)CCOc1c(-c2ccc(F)c(F)c2)oc2cc(OCC(=O)O)cc(O)c2c1=O [Compound 5, 2-((2-(3,4-Difluorophenyl)-3-(3,3-dimethylbutoxy)-5-hydroxy-4-oxo-4H-chromen-7-yl)oxy)acetic Acid]
EPi (inhibition of efflux pump activity): ↑ ^g
